The values below come from patent publication US20170368134A1, “PROTEASOME INHIBITORS FOR TREATING A DISORDER RELATED TO AN ACCUMULATION OF NON-DEGRADED ABNORMAL PROTEIN OR A CANCER” (UNIVERSITÉ D'AIX-MARSEILLE, priority 2015, published 2017).

Peptide text beside a SMILES is read from it. * marks the point of attachment. Cbz = O=C(OCc1ccccc1)* Bounds are passed on as bounds.

Holding throughout (assay type): cell-based, human
For assay [1], the system named is LC3B-II. The experiment in a line: Western blot of LC3B-II (autophagy level) in HGPS fibroblasts. The following applies: HGPS fibroblasts following MG132 treatment. On the procedure: (§1) Total fibroblast proteins were extracted in 200 μL of NP40 Cell Lysis buffer (Invitrogen, Carlsbad, Calif.) containing Protease and Phosphatase Inhibitor Cocktail (Thermo Scientific). Alternatively, cells were lysed with urea (8 M urea, 5 mM dithiothreitol, 150 mM NaCl, 50 mM Tris-Cl pH 7.5, protease and phosphatase Inhibitor Cocktail (Thermo Scientific)). Cells were sonicated twice (30 sec each), incubated at 4° C. for 30 minutes and then centrifuged at 10,000 g for 10 minutes. Protein concentration was evaluated with the bicinchoninic acid technique (Pierce BCA Protein Assay Kit), absorbance at 562 nm is measured using nanodrop 1000 (Thermo Fisher Scientific Inc.) Equal amounts of proteins (40 μg) were loaded onto 10% Tis-Glycine gel (Criterion™ XT precast gel) using XT Tricine running Buffer (Biorad, USA). After electrophoresis, gels were electro transferred onto nitrocellulose membranes or Immobilon-FL polyvinylidene fluoride membranes (Millipore), blocked in Odyssey Blocking Buffer diluted 1:1 in PBS for 1 hour at room temperature, and incubated overnight at 4° C. or 2 hours at room temperature with various primary antibodies. […]
A general note: In western blotting, separated proteins are transferred to a membrane and probed.

The subject of assay [2] is progerin. The experiment in a line: Progerin levels in HGPS iPS-derived MSC and VSMC. The following applies: data not shown. On the procedure: Generation of induced pluripotent stem cells (iPS) by reprogramming was carried out using fibroblasts isolated from HGPS patient biopsies performed in the Assistance Publique Hopitaux de Marseille (13-8243) or provided by Coriell Institute (Camden, USA) (AG01972). Cell lines were reprogrammed to iPSC using Yamanaka's original method based on retrovirus-mediated transfection of four transcription factors, namely Oct3/4, Sox2, c-Myc, and Klf4 (41). The iPSC lines were amplified up to the 15th passage before differentiation.
HGPS iPSC were grown on STO mouse fibroblasts, inactivated with […] mitomycin C, seeded at 30,000/cm2 and grown as previously described (42). For differentiation, iPSC were differentiated into mesenchymal stem cells (MSC-iPSC) using directed protocols for differentiation previously published (43-45). VSMC were obtained from iPSC by fluorescent-activated cell sorting (FACS) separation of CD31+ cells (46).
To determine whether MG132 also influences the level of progerin in other cell lineages, the inventors generated iPSC from HGPS patients' fibroblasts. Mesenchymal Stem Cells (MSC) and Vascular Smooth Muscle Cells (VSMC) derived from HGPS iPSC presented the commonly described abnormalities of HGPS fibroblasts, namely, loss of proliferation capacities, premature senescence and nuclear blebbing (69, 70). […]

For assay [3], the system named is lamin C. Kind of assay: Western blot of lamin C protein in HGPS fibroblasts. To be noted: 48 h treatment with MG132 (10 μM). On the procedure:
as §1

The subject of assay [4] is HGPS cell lines. The experiment in a line: Quantitation of abnormal nuclear morphology. The following applies: 10 μM MG132, 48 h. The procedure:
The percentage of normal nuclei (nuclei with a smooth oval shape) and abnormal nuclei (nuclei with blebs, irregular shape, or multiple folds) was calculated by manual blind counting. A representative image and the mean values of 3 different experiments are shown. *P<0.05.
Fibroblasts from three HGPS patients (AG01972, AG11498, 5968) and two normal individuals (8471, 8498) were cultured with DMEM medium containing 10 μM MG132, or the same volume of vehicle (DMSO, 0.025% v/v) for 48 h. Cells stained for lamin A/C or DAPI were examined by fluorescence microscopy with an Axioplan 2 imaging microscope (Carl Zeiss). For quantitation of abnormal nuclear morphology, the percentage of normal nuclei (nuclei with a smooth oval shape) and abnormal nuclei (nuclei with blebs, irregular shape, or multiple folds) was calculated by manual blind counting. At least 200 fibroblast nuclei were randomly selected for each cell line and examined in two independent experiments. Results are expressed graphically as the average percentage of the total nuclei counted.

For assay [5], the system named is lamin A. The experiment in a line: Western blot of lamin A protein in HGPS fibroblasts. The following applies: 48 h treatment with MG132 (10 μM). The procedure:
as §1

In assay [6] the test system is SRSF-1. Kind of assay: Western blot of SRSF-1 in HGPS fibroblasts. The following applies: 48 h treatment of HGPS fibroblasts with MG132 (10 μM). On the procedure:
Total fibroblast proteins were extracted in 200 μL of NP40 Cell Lysis buffer (Invitrogen, Carlsbad, Calif.) containing Protease and Phosphatase Inhibitor Cocktail (Thermo Scientific). Alternatively, cells were lysed with urea (8 M urea, 5 mM dithiothreitol, 150 mM NaCl, 50 mM Tris-Cl pH 7.5, protease and phosphatase Inhibitor Cocktail (Thermo Scientific)). Cells were sonicated twice (30 sec each), incubated at 4° C. for 30 minutes and then centrifuged at 10,000 g for 10 minutes. Protein concentration was evaluated with the bicinchoninic acid technique (Pierce BCA Protein Assay Kit), absorbance at 562 nm is measured using nanodrop 1000 (Thermo Fisher Scientific Inc.) Equal amounts of proteins (40 μg) were loaded onto 10% Tis-Glycine gel (Criterion™ XT precast gel) using XT Tricine running Buffer (Biorad, USA). After electrophoresis, gels were electro transferred onto nitrocellulose membranes or Immobilon-FL polyvinylidene fluoride membranes (Millipore), blocked in Odyssey Blocking Buffer diluted 1:1 in PBS for 1 hour at room temperature, and incubated overnight at 4° C. or 2 hours at room temperature with various primary antibodies. Blots were washed with TBS-T buffer [20 mM tris (pH 7.4), 150 mM NaCl, and 0.05% Tween 20] and incubated with 1:10,000 IR-Dye 800-conjugated secondary donkey anti-goat or IR-Dye 700-conjugated secondary anti-mouse antibodies (LI-COR Biosciences) in Odyssey blocking buffer (LI-COR Biosciences). For IR-Dye 800 and IR-Dye 700 detection, an Odyssey Infrared Imaging System (LI-COR Biosciences) was used. GAPDH, α-tubulin or β-actin were used as a total cellular protein loading control.

Assay [7] has as its system lamin A mRNA. The experiment in a line: qRT-PCR of lamin A transcripts in HGPS cells. To be noted: 10 μM MG132 time-course. On the procedure: Total RNA was isolated using the RNeasy plus extraction kit (Qiagen, Valencia, Calif.). 1 μg of RNA was reverse transcribed using the High Capacity cDNA Reverse Transcription Kit (Applied Biosystems). Real time PCR amplification was carried out with the TaqMan® Gene Expression Master Mix (Applied Biosystems) on a LightCycler 480 (Roche, Germany) using pre-designed primers for GAPDH (Hs00266705_g1), Progerin (F: […] (SEQ ID NO:3) R: […] (SEQ ID NO:4) and probe: […] (SEQ ID NO:5)), Lamin A (F: […] (SEQ ID NO:6) R: […] (SEQ ID NO:7) and probe: […] (SEQ ID NO:8)) and lamin C (F: […] (SEQ ID NO:9) R: […] (SEQ ID NO:10) and probe: […] (SEQ ID NO:11)) (Applied Biosystems) using the program: UNG incubation at 50° C. for 2 minutes, initial denaturation at 95° C. for 10 minutes, 40 cycles of amplification: denaturation at 95° C. for 15 seconds and annealing at 60° C. for 1 minute. All PCR reactions were performed in triplicate. Threshold cycle (Ct) values were used to calculate relative mRNA expression by the 2-ΔΔ^T relative quantification method with normalization to GAPDH expression.

Turning to `CC(C)C[C@@H](C=O)NC(=O)[C@H](CC(C)C)NC(=O)[C@H](CC(C)C)NC(=O)OCc1ccccc1` [MG132, Z-Leu-Leu-Leu-al] (Cbz-Leu-Leu-Leu-aldehyde), in assay [1], the LC3B-II levels entry is reported as “increased”. The progerin levels result in assay [2] (HGPS fibroblasts, iPS-MSC and iPS-VSMC) is on record as “decreased”. In assay [2] (iPS-VSMC, progerin immunostaining), the “concentration from which progerin reduction is significant” value was not below 1.25 µM. In addition, in assay [3], the “lamin C protein levels” value is reported as “increased”. The nuclear shape abnormalities entry in assay [4] is listed as “improves nuclear shape abnormalities”. Moreover, the “lamin A protein levels” value in assay [5] is recorded as “increased”. Moreover, the SRSF-1 levels result in assay [6] is given as “significant decrease of SRSF-1 levels”. Moreover, the “lamin A transcript levels” value in assay [7] is reported as “significant decrease of lamin A transcripts”.
